# Active and inactive are the calls of the source.
# Assays:
# [1] = target: T1, RNA-binding protein pos-1 (Caenorhabditis elegans, UniProt G5EF15); test: inhibitors of POS-1/mex-3 RNA binding, dose response, biochemical, fluorescence polarization (AID 1964);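 also: purified POS-1 fused to maltose binding protein made in E. coli; potency of compounds blocking POS-1 binding to fluorescent RNA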
# T1 sequence (G5EF15 whole entry): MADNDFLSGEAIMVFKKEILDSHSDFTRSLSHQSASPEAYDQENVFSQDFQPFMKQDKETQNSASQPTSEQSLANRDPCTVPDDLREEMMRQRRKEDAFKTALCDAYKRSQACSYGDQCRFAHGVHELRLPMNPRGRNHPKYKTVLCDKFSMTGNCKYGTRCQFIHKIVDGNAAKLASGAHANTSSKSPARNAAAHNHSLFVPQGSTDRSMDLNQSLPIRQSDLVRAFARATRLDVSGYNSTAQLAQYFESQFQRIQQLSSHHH
# [2] = target: Dual specificity protein phosphatase 3 (Homo sapiens, UniProt P51452); test: VHR1 phosphatase inhibitors, primary screen, biochemical, absorbance, uHTS (AID 1654)
# Protein RecA = target: T2, Protein RecA (Mycobacterium tuberculosis, UniProt P9WHJ3); test: GFP-RecA MOA-DTT Measured in Biochemical System Using Plate Reader - 2047-05_Inhibitor_Dose_DryPowder_Activity. [Related pubchem assays (depositor defined):AID2223]; design: species or system Mycobacterium tuberculosis H37Rv
# T2 sequence (P9WHJ3 whole entry): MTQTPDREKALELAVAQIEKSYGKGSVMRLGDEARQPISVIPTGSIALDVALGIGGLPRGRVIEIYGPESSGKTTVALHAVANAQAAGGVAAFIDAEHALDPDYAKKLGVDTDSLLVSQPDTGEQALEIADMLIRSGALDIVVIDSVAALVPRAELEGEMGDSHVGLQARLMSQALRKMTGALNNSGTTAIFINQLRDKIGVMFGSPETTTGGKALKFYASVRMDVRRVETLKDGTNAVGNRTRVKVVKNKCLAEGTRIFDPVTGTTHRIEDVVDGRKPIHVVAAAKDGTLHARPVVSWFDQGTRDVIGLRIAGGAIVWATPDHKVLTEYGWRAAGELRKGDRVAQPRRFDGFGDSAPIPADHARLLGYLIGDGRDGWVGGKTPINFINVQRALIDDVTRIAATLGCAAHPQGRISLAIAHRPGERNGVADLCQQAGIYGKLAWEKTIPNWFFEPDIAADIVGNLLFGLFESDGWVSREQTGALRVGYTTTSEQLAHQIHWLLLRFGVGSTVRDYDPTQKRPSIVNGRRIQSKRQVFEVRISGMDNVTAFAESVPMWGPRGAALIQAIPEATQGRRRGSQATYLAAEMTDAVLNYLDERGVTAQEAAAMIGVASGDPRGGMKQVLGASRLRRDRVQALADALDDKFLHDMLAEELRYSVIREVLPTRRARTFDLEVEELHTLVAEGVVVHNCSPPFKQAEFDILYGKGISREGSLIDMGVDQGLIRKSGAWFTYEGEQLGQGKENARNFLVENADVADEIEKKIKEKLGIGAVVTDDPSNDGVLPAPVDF
# [3] = target: Protein-arginine deiminase type-4 (Homo sapiens, UniProt Q9UM07); test: human PAD4 inhibitor potency, dose response, biochemical, fluorescence readout (AID 492970)
# [4] = target: Lysine-specific demethylase 4A (Homo sapiens, UniProt O75164); test: JMJD2A histone demethylase inhibitors, dose response, selectivity assay for GASC-1 inhibitor project, biochemical, DELFIA europium, cherry-picked samples (AID 488840)
# [5] = miR-122 activators in hepatoma reporter cells, dose response, cell-based, Huh7 psiCHECK-miR122, Renilla luciferase, cherry-picked (AID 651956); format: functional;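 also: huh7 hepatoma cells stably carrying a psiCHECK-2 miR-122 sensor plasmid; renilla luciferase signal reporting endogenous miR-122 activity after 48 h compound exposure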
# [6] = HEK293T cytotoxicity, dose response, cytotoxicity control for miR-122 modulator project, cell-based, activator set, cherry-pick (AID 720690); format: functional;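 also: HEK293T human cells scored for general mammalian cytotoxicity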
# Cytochrome P450 3A4 = Cytochrome P450 3A4 (Homo sapiens, UniProt P08684);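 also: CYP3A4 tested as one member of a cytochrome P450 panel screen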
# Chain of Cytochrome P450 3A4 (P08684 whole entry): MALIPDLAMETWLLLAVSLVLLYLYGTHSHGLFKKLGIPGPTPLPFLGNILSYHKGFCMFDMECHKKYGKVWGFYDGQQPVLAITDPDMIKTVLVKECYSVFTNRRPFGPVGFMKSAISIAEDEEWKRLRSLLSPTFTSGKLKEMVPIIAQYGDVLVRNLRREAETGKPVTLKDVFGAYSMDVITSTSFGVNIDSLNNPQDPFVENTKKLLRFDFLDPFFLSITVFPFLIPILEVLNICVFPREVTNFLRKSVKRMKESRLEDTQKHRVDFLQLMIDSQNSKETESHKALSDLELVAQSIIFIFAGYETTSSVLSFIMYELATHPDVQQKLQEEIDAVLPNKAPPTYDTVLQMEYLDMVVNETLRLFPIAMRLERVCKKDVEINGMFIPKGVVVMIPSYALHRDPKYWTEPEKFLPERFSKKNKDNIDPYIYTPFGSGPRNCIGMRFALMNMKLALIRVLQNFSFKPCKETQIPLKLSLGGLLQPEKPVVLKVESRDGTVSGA
# Chain of Lysine-specific demethylase 4A (O75164 whole entry): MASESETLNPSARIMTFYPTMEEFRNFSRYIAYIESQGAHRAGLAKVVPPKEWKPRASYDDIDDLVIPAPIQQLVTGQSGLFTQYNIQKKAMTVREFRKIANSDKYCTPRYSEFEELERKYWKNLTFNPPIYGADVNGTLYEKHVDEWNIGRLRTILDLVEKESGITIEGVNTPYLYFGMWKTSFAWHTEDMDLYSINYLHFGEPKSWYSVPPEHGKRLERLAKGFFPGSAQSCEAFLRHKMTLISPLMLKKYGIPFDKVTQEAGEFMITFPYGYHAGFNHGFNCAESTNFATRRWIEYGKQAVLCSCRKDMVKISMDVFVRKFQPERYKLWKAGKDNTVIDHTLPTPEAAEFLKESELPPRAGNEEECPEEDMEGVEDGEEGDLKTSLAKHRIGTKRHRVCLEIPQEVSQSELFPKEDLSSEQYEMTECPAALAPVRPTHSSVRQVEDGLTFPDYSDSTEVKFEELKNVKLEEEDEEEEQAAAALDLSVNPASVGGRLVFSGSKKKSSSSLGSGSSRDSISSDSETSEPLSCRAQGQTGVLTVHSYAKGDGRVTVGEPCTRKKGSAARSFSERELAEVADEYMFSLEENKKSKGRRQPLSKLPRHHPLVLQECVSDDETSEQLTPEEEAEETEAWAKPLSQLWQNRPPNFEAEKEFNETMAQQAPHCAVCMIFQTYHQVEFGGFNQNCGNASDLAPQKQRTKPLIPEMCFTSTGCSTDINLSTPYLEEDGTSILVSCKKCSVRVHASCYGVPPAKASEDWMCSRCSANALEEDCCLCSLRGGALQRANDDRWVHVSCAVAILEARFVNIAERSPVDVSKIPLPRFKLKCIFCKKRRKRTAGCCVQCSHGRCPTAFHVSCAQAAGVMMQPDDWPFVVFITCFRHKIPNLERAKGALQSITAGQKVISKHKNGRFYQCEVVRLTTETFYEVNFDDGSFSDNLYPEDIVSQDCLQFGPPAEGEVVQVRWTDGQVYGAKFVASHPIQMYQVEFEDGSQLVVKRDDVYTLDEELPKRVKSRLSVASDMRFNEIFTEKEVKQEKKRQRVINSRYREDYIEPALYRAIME
# Chain of Protein-arginine deiminase type-4 (Q9UM07 whole entry): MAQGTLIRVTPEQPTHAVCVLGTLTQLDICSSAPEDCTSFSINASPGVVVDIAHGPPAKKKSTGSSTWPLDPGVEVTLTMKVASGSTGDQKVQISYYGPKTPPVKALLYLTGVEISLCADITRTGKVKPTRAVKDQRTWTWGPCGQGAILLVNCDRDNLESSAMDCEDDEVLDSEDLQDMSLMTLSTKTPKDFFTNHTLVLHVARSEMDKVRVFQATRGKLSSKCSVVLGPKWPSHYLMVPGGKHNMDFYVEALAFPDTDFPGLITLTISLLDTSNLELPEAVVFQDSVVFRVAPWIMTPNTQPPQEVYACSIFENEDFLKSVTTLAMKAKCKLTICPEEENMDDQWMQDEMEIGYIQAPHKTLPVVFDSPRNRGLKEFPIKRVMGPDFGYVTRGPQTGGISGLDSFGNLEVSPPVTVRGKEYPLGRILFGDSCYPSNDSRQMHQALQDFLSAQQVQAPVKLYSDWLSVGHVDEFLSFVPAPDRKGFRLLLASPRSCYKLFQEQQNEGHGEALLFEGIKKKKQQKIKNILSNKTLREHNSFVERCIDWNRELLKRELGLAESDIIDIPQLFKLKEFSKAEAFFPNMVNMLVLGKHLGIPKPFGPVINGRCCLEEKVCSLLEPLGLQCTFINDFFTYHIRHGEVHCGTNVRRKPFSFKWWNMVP
# Chain of Dual specificity protein phosphatase 3 (P51452 whole entry): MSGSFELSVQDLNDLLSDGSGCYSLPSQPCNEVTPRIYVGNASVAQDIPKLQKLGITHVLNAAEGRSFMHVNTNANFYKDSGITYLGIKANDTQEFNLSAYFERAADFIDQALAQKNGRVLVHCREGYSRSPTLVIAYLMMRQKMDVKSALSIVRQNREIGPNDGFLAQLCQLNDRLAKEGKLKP
smiles,measurement,setting,value
COc1ccc(NS(=O)(=O)c2ccc3c(c2)[C@H]2C=CC[C@H]2[C@@H](c2ccc(C(=O)O)cc2)N3)cc1,EC50,[1],14.3 µM (inconclusive)
Cn1nc(-c2ccccn2)nc2c(=O)n(C)c(=O)nc1-2,IC50,[2],< 1.23 µM (inactive)
same,AC50,Protein RecA,0.143 µM (active)
same,IC50,[3],21 µM (inactive)
same,AC50,[4],5.1 µM (active)
CCCCCCCCCCn1c2c(c(=N)c3c1CCC3)CCC2,AC50,[5],5.06 µM (active)
same,AC50,[6],6.56 µM (active)
same,AC50,Cytochrome P450 3A4,31.6 µM (inconclusive)

# From ChEMBL document CHEMBL1201862, “PubChem BioAssay data set” (2004)
